We go through five molecules from PMC9866218, “Characterization and Chemical Synthesis of Cm39 (α-KTx 4.8): A Scorpion Toxin That Inhibits Voltage-Gated K^+ Channel KV1.2 and Small- and Intermediate-Conductance Ca^2+-Activated K^+ Channels KCa2.2 and KCa3.1” (Toxins, 2023).

Bridge positions count the residues as written; N and C are the ends. Ends that are not written are not given here.

One test concerns KCa2.2 channel. As to conditions: cited from earlier work. An excerpt:
(§1) Most of the peptides in subfamily 4 are very similar (percentage identity ranging from 78 to 97%) and share common pharmacological targets, including KV1.3, KV1.2 and KCa channels. […] Not all subfamily 4 toxins have been tested on the KV1.3 channel, but for those that were te ... || To date, a number of scorpion-derived peptide toxins are known to block K^+ channels with great affinity. However, these native toxins target more than one channel which compromises their therapeutic use in the management of channelopathies.

The subject of the next test is KV1.3. Particulars: cited from earlier work. An excerpt: Most of the peptides in subfamily 4 are very similar (percentage identity ranging from 78 to 97%) and share common pharmacological targets, including KV1.3, KV1.2 and KCa channels. […] Not all subfamily 4 toxins have been tested on the KV1.3 channel, but for those that were te ... || Generally, scorpion toxins interact at two different regions of KV channels to modify their function. Typical functional dyad (lysine and tyrosine) bearing toxins bind to the extracellular vestibule in such a way that lysine goes deep into selectivity filter, thereby plugging the pore of the channel. Other toxins interact with the voltage-sensing domain (VSD) causing the significant change in gating of the channel.

Another test has as its system KV1.2. As to conditions: cited from earlier work. An excerpt: Most of the peptides in subfamily 4 are very similar (percentage identity ranging from 78 to 97%) and share common pharmacological targets, including KV1.3, KV1.2 and KCa channels. […] Not all subfamily 4 toxins have been tested on the KV1.3 channel, but for those that were te ...
For test [1], the system named is several KV1.x channel subtypes and Ca^2+-activated channels. Particulars: high affinity; cited from earlier work. The source says: To date, a number of scorpion-derived peptide toxins are known to block K^+ channels with great affinity. However, these native toxins target more than one channel which compromises their therapeutic use in the management of channelopathies.

A further test deals with T1, hKV1.2 (Homo sapiens, UniProt P16389).
T1 construct: GFP (vector pCMV6-AC-GFP); host or cells: CHO cells, transient transfection
T1 sequence (P16389 whole entry): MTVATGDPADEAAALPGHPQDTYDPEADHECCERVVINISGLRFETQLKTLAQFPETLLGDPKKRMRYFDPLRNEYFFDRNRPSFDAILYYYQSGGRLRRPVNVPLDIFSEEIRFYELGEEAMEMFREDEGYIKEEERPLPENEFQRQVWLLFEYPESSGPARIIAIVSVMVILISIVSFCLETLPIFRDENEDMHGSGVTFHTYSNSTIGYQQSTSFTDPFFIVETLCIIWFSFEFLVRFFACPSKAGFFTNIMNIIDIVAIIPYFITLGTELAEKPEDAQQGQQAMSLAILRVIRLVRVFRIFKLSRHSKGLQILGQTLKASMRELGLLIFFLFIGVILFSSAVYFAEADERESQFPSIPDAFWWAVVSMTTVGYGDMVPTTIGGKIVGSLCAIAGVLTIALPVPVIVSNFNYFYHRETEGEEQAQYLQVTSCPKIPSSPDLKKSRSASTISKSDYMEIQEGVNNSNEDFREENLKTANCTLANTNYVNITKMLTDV
The test is described as follows: Whole-cell patch-clamp, block of KV1.2 current. It is filed as cell-based. Particulars: fully reversible blocker as positive control. The source says:
(§2) We, therefore, aimed at testing the pharmacological activity of sCm39 on a battery of various potassium and sodium ion channels. Among the tested channels were six members of human voltage-gated K^+ (hKV) channels from Shaker family, hKV1.1-hKV1.6 (Figure 3A–F) and three members of Ca^2+-activated potassium channel; hKCa2.2 (SK2, Figure 3I), the small-conductance Ca^2+-activated channel; hKCa3.1 (IKCa1, SK4. Figure 3J), the intermediate-conductance Ca^2+-activated channel expressed in T lymphocytes; and mKCa1.1 (BK, Slo1, MaxiK, Figure 3H), the large-conductance voltage- and Ca^2+-activated channel of mice. In addition, we also screened the effect of Cm39 on hKV11.1 (hERG1, Figure 3G), a voltage-gated cardiac K^+ channel, and two human voltage-gated sodium (hNaV) channels, hNaV1.4 (Figure 3K) and hNaV1.5 (Figure 3L), expressed in skeletal and cardiac muscles, respectively. These ion channels were heterologously expressed in the CHO or HEK cell lines except for KV1.3. Human peripheral T lymphocytes. They were stimulated with Phytohemagglutinin A (PHA) to increase the KV1.3 channel expression, and Ca^2+-free intracellular solution was used to avoid KCa3.1 channel activation. Appropriate depolarization protocols were used to record ionic currents in voltage-clamped cells (see Figure 3 insets and Material and Methods for details). Freshly dissolved sCm39 in extracellular solution was applied at 1 µM concentration on the cell using a custom-built micro-perfusion system at ~200 µL/min flow rate.
For comprehensive characterization of Cm39 activity on KV1.2, we determined the concentration–response of current inhibition by Cm39, the kinetic parameters of its binding and assessed the effect on voltage dependence of steady-state activation. The whole-cell KV1.2 currents were recorded in CHO cells using depolarization pulses to +50mV from −120mV holding potential (Vh) every 15 s. Since the activation kinetics of KV1.2 are highly variable, the duration of pulses was set on a cell-by-cell basis between 15–300 ms to allocate sufficient time for reaching maximum currents at the test potentials. […] The remaining current fractions (RCF = I/I0, where I0 is the peak current in the absence of the toxin, and I is the peak current at equilibrium block in the presence of sCm39 at a given concentration) were calculated and plotted as a function of toxin concentration.
Single-exponential decay functions were fitted to the normalized peak currents in the presence of each sCm39 concentration (Figure 4C, data points in red shades) to determine the time constant for the onset of block (τon, wash-in or association time constant). The dissociation time constant for the relief from block (τoff, wash-out time constant) was obtained by fitting a single-exponential rising function to the normalized peak currents in the wash-out procedure (Figure 4C, data point in black empty circles). Assuming a simple bimolecular interaction between the toxin and the channel, time constants for the onset and recovery from the block can be stated as follows:(1) τon=1/kon×[toxin]+koff , τoff=1/koff where kon represents the second-order association rate constant, koff indicates the first-order dissociation rate constant and [toxin] is the sCm39 concentration. […] The second-order rate constant of association (kon) was determined by fitting the 1/τon data points using linear regression with koff as the y-intercept.
Background: In patch-clamp work, channel activity is measured electrically.

For a further test, the target named is KCa3.1 channel. As to conditions: cited from earlier work.
From the text: as §1

In another test the test system is hKV1.3. It is filed as cell-based, human.
From the text: as §2
For the measurement of KV1.x, mKCa1.1 and NaV1.x currents the extracellular solution was composed of (in mM) 145 NaCl, 5 KCl, 2.5 CaCl2, 1 MgCl2, 10 HEPES and 5.5 glucose, pH 7.35. In the HK-150 and Na^+-free bath solution bath all Na^+ was substituted by K^+ or Choline-Cl, respectively, other ingredients remained unchanged. […]
Whole-cell currents were recorded in voltage-clamped cells following standard protocols by using a Multiclamp 700B amplifier connected to a computer with Axon Digidata1440 digitizer and for data acquisition, Clampex 10.7 software was used (Molecular Devices).

The test system of a further test is mKCa1.1. Type of test: cell-based, mice.
From the text: as §2, with “rate. […]” for “rate.”
Whole-cell currents were recorded in voltage-clamped cells following standard protocols by using a Multiclamp 700B amplifier connected to a computer with Axon Digidata1440 digitizer and for data acquisition, Clampex 10.7 software was used (Molecular Devices). […]

Another test relates to hKV1.1. Type of test: cell-based, human.
From the text: as §2
(§3) Chinese hamster ovary (CHO) cells (gift from Yosef Yarden, Weizmann Institute of Science, Rehovot, Israel) were maintained by culturing in Dulbecco’s modified Eagle medium (DMEM, Gibco) supplemented with 2 mM L-glutamine, 10% FBS, 100 µg/mL streptomycin and 100 U/mL penicillin-g (Sigma-Aldrich) at a density of 0. 5−1×10^6 cells per mL in a humidified incubator at 37 °C and 5% CO2. Cells were passaged 3 times in a week following a 2–5 min incubation in 0.05% trypsin-EDTA solution at 37 °C. Cultures were used up to passage number 20. PCR-based tests were routinely used to detect mycoplasma infection, only mycoplasma-free cultures were used for experiments.
(§4) Those plasmids which lack a fluorescent tag were co-transfected with a plasmid encoding GFP. Transfections were performed at a GFP:channel DNA molar ratio of 1:10 using the Lipofectamine 2000 kit (Invitrogen) according to the manufacturer’s protocol. […] Generally, currents were recorded 24 to 48 h post transfection.
(§5) For the measurement of KV1.x, mKCa1.1 and NaV1.x currents the extracellular solution was composed of (in mM) 145 NaCl, 5 KCl, 2.5 CaCl2, 1 MgCl2, 10 HEPES and 5.5 glucose, pH 7.35. In the HK-150 and Na^+-free bath solution bath all Na^+ was substituted by K^+ or Choline-Cl, respectively, other ingredients remained unchanged. In the various TEA^+-containing solutions, Na^+ was substituted by tetraethylammonium-Cl in equimolar concentration (Figure 3). The bath solution for KCa2.2 and KCa3.1 consisted of (in mM) 145 L-Aspartic Na^+ salt, 5 KCl, 2.5 CaCl2, 1 MgCl2, 5.5 glucose and 10 HEPES, pH 7.4 and for KV11.1 (in mM) 140 Choline-Cl, 5 KCl, 2 MgCl2, 2 CaCl2, 10 HEPES, 20 glucose and 0.1 CdCl2, pH 7.35. The osmolarity of bath solutions was ranging between 302 to 308 mOsm/L. A total of 0.1 mg/mL bovine serum albumin (BSA, Sigma-Aldrich, Budapest, Hungary) was added to all the bath solutions before the patch-clamp assay to avoid toxin adsorption to the plastic surfaces of the perfusion system. Internal or pipette solution for recording KV1.x and mKCa1.1 currents consisted of (in mM) 140 KF, 2 MgCl2, 1 CaCl2, 11 EGTA and 10 HEPES, pH 7.22.

A further test has as its system hKV1.6. Type of test: cell-based, human.
From the text: as §2, §3, §4, §5

For the molecule “apamin (CNCKAPETALCARRCQQH-NH2; disulfide 1-11, 3-15; ends not checked; UniProt P01500 28-45, looked up)”, the “blocking effect on KCa2 (small-conductance K^+ channel, SK)” value in the test with KCa2.2 channel is reported as “picomolar range”.

For orientation: Kd means the constant that tells how readily two partners part at equilibrium. For the molecule ChTx, the “effect on KV1.3” value with KV1.3 was “shows effects”. In addition, the “effect on KV1.2” value in the test on KV1.2 is given as “shows effects”. Besides, in test [1], the affinity range result was “picomolar to nanomolar”. Also, in the test with hKV1.2, the “current response to positive control” value was “decrease in the current”. At KCa3.1 channel, the Kd is 5 nM.

For the molecule `CC[N+](CC)(CC)CC` [TEA^+, tetraethylammonium chloride, reference compound], the “current response to positive control” value in the test on hKV1.3, in the test with mKCa1.1, with hKV1.1 and with hKV1.6 was “decrease in the current” throughout.

Regarding “MgTx (TIINVKCTSPKQCLPPCKAQFGQSAGAKCMNGKCKCYPH; UniProt P40755 1-39, looked up)”, in test [1], the affinity range result is “picomolar to nanomolar”.

As for “Leiurotoxin I: isolated from Leiurus quinquestriatus hebraeus (AFCNLRMCQLSCRSLGLLGKCIGDKCECVKH; UniProt P16341 1-31, looked up)”, the “inhibition of KCa2.x subtypes” value in the test with KCa2.2 channel (small-conductance Ca^2+-activated potassium channel KCa2.x subtypes) is “potent inhibitor”.
